ChEMBL document CHEMBL3593167, “Synthesis and anti-Trypanosoma cruzi activity of new 3-phenylthio-nor-β-lapachone derivatives” (Bioorg Med Chem, 2015)

Tests used:
Trypanosoma cruzi = experiment: Trypanocidal activity against Trypanosoma cruzi Y bloodstream trypomastigotes in presence of 10% mouse blood assessed as induction of parasite lysis incubated for 24 hrs by Neubauer chamber based cell counting method; assay type: functional, organism-based
[1] = Selectivity index, ratio of LC50 for mouse HMC to IC50 for Trypanosoma cruzi Y bloodstream trypomastigotes
[2] = Toxicity against mouse HMC incubated for 24 hrs; settings: HMC cells, read-out: LC50

| Structure (SMILES) | IC50 (Trypanosoma cruzi) | Ratio LC50/IC50 [1] | CC50 at 24 h [2] |
| --- | --- | --- | --- |
| CC1(C)OC2=C(C(=O)C(=O)c3ccccc32)C1Sc1c(F)c(F)c(F)c(F)c1F (stereo not given) | 183 µM |  |  |
| CC1(C)OC2=C(C(=O)C(=O)c3ccccc32)C1Sc1ccccc1 (stereo not given) | 32.3 µM | 0.54 | 17.5 µM |
| CC1(C)OC2=C(C(=O)C(=O)c3ccccc32)C1Sc1ccc(Cl)cc1 (stereo not given) | 9.2 µM | 4.23 | 38.9 µM |
| Cc1cccc(SC2C3=C(OC2(C)C)c2ccccc2C(=O)C3=O)c1 (stereo not given) | 83.6 µM | 0.31 | 25.8 µM |
| Cc1ccc(SC2C3=C(OC2(C)C)c2ccccc2C(=O)C3=O)cc1 (stereo not given) | 59.5 µM | 0.34 | 20.5 µM |
| CC1(C)OC2=C(C(=O)C(=O)c3ccccc32)C1Sc1ccc(F)cc1 (stereo not given) | 165 µM |  |  |
| COc1ccc(SC2C3=C(OC2(C)C)c2ccccc2C(=O)C3=O)cc1 (stereo not given) | 158 µM |  |  |
